According to patent US6468976B1 (AstraZeneca AB, priority 2001, dated 2002):

Columns and labels:
[1] = stability / hygroscopicity on standing at ambient conditions; format: physicochemical; conditions: for hygroscopicity / stability at room temperature and humidity: standard room temperature and humidity; for stability under ambient conditions: thermogravimetric analysis after 5 hours standing at ambient conditions
Method: The partially dehydrated material was allowed to stand for about 5 hours.

[2] = crystal size by SEM; format: physicochemical
Text: In contrast, the crystals of monohydrate form 2 are much smaller, and in a narrower size range, than those of monohydrate form 1, typically 5 μm or less in edge length.

[3] = cited from earlier work

SMILES | hygroscopicity / stability at room temperature and humidity [1] | stability under ambient conditions [1] | also measured
NCCCC[C@H](N[C@@H](CCc1ccccc1)C(=O)O)C(=O)N1CCC[C@H]1C(=O)O.O [Preparation 3] | strongly hygroscopic | regained the lost weight and to have become a dihydrate | 
NCCCC[C@H](N[C@@H](CCc1ccccc1)C(=O)O)C(=O)N1CCC[C@H]1C(=O)O [monohydrate lisinopril form 1, 1-(N^2-[(S)-1-carboxy-3-phenylpropyl]-L-lysyl)-L-proline] | stable at a standard room temperature and humidity | stable under ambient conditions | crystal size (length / edge length) ([2]; listed as monohydrate form 1): 50 to 500 μm
NCCCC[C@H](N[C@@H](CCc1ccccc1)C(=O)O)C(=O)N1CCC[C@H]1C(=O)O [lisinopril, 1-(N^2-[(S)-1-carboxy-3-phenylpropyl]-L-lysyl)-L-proline] |  |  | time to peak serum concentrations ([3]; following oral administration): ≤ 7 h; effective half-life of accumulation ([3]; on multiple dosing): about 12.6 hours
NCCCC[C@H](N[C@@H](CCc1ccccc1)C(=O)O)C(=O)N1CCC[C@H]1C(=O)O [monohydrate lisinopril form 2, 1-(N^2-[(S)-1-carboxy-3-phenylpropyl]-L-lysyl)-L-proline] |  |  | crystal size (length / edge length) ([2]; listed as monohydrate form 2): ≤ 5 μm
